In patent EP0643964A2 (priority 1993, dated 1995):
Values joined by “and” are separate entries in the source; they are usually repeats but may differ in a detail not shown here. Identical values can stand only once.

Columns and labels:
[1] = tested on: herpes simplex; experiment: Evolution of recidivant periorificial herpes simplex infection in volunteers; assay type: in vivo, human
Procedure: Patients were divided into 3 groups: one of the groups (n=4) received acyclovir by oral route and topical applications of the same drug. […] Experiments began with the appearance of the next episode of herpes, just in the moment when vesicles appeared.
All these patients were controlled monthly during the following 4 months. During this time, group A patients presented episodes with a pattern similar to that they had before the experiment was performed. […] The remaining two presented an episode of herpes 2.8 and 3.3 months later.

[2] = tested on: M3 tumor; experiment: M3 transplanted mice, tumor area (lidocaine and epidoxorrubicine); assay type: in vivo
[3] = tested on: Giardia lamblia; experiment: Patients with malabsorption syndrome (MAS) caused by Giardia lamblia; assay type: in vivo, human; details: Volunteer # 1, 7 days of treatment; recurrence one month later
Excerpt: Volunteer # 1: Type II MAS with positive isolation of Giardia lamblia in duodenal washings and confirmation of the disease by histopathology. […] One month later, patient 1 presented symptoms and signs of recurrence of the disease, with positive isolation of parasites in feces.
Volunteer # 2: with diffuse abdominal pain, loss of body weight and steatorrhea.

[4] = target: pseudocholines-terase (Homo sapiens, UniProt P06276); details: cited from earlier work
Chain of pseudocholines-terase (P06276 29-602, species assumed): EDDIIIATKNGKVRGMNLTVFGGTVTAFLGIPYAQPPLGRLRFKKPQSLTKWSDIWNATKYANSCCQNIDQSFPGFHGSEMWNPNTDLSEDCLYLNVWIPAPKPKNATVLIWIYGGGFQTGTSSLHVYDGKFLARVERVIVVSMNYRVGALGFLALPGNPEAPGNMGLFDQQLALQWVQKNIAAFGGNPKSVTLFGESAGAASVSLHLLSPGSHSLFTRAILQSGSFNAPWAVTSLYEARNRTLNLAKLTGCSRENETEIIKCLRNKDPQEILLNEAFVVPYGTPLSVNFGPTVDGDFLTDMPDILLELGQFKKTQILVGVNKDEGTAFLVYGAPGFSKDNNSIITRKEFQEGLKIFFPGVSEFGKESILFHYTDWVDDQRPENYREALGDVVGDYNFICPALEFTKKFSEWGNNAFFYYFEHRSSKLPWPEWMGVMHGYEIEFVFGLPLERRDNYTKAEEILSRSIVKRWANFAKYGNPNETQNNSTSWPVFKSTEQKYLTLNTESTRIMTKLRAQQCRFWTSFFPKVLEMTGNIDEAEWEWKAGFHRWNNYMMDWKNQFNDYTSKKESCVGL

[5] = in vivo; cited from earlier work
[6] = global anesthesia by intravenous route; one death in more than 6200 patients; cited from earlier work
[7] = herpes simplex episode, ACV oral+topical, lidocaine 5 ml 2% i.v. twice a day 2 days

Nc1nc2c(ncn2COCCO)c(=O)[nH]1 [ACV, acyclovir]
Duration of lesions [1, 7]: 7 days
Duration of symptoms [1, 7]: 4 days
FIRST EPISODE AFTER TREATMENT ([1]; individual patients, followed monthly for 4 months): 31 d. and 29 d d. and 33 d d. and 40 d.

COc1cccc2c1C(=O)c1c(O)c3c(c(O)c1C2=O)C[C@@](O)(C(=O)CO)C[C@@H]3O[C@H]1C[C@H](N)[C@@H](O)[C@H](C)O1 [epidoxorrubicine]
Area (tumor) ([2]; day 7 p-t (day 0), lidocaine 0.1 ml 0.05% every 7 days, epidoxorrubicine 0.125 ml 0.2% every 7 days, combination: lidocaine 2 days after epidoxorrubicine): 0.46
Area (tumor) ([2]; day 10 p-t, regimens as Table 5 footnotes, saline control 0.92): 0.90
I/Ø: Percentual increment over tumor in day 0 (day 7 p-t) ([2]; day 10 p-t, saline control 103.47): 95.65%
Area (tumor) ([2]; day 12 p-t, regimens as Table 5 footnotes, saline control 1.56): 1.56
I/Ø: Percentual increment over tumor in day 0 (day 7 p-t) ([2]; day 12 p-t, saline control 245.61): 238.04%
Area (tumor) ([2]; day 14 p-t, regimens as Table 5 footnotes, saline control 2.06): 2.36
I/Ø: Percentual increment over tumor in day 0 (day 7 p-t) ([2]; day 14 p-t, saline control 357.57): 413.04%
I/Ø: Percentual increment over tumor in day 0 (day 7 p-t) ([2]; day 16 p-t, saline control 516.74): 316.30%
Area (tumor) ([2]; day 18 p-t, regimens as Table 5 footnotes, saline control 3.61): 2.41
I/Ø: Percentual increment over tumor in day 0 (day 7 p-t) ([2]; day 18 p-t, saline control 701.39): 422.83%
Area (tumor) ([2]; day 21 p-t, regimens as Table 5 footnotes, saline control 4.61): 3.39
I/Ø: Percentual increment over tumor in day 0 (day 7 p-t) ([2]; day 21 p-t, saline control 923.86): 637.68%
Area (tumor) ([2]; day 23 p-t, regimens as Table 5 footnotes, saline control 5.49): 3.57
I/Ø: Percentual increment over tumor in day 0 (day 7 p-t) ([2]; day 23 p-t, saline control 1119.69): 676.81%
Area (tumor) ([2]; day 25 p-t, regimens as Table 5 footnotes, saline control 6.24): 4.16
I/Ø: Percentual increment over tumor in day 0 (day 7 p-t) ([2]; day 25 p-t, saline control 1286.33): 804.35%
Area (tumor) ([2]; mouse, in vivo): 1.92

Cc1ncc([N+](=O)[O-])n1CCO [metronidazole]
Clinical evolution [3]: good evolution

CCN(CC)CCOC(=O)c1ccc(N)cc1 [procaine]
cleavage rate ([4]; hydrolysis in blood plasma and liver): 20 mg. per minute
half life [5]: about 0.7 minutes
deaths [6]: less than 0.01%

CCCCNc1ccc(C(=O)OCCN(C)C)cc1 [tetracaine]
velocity of cleavage relative to procaine [4]: about 5 times more slowly than procaine
